Measurements published in paper PMC6681697, “One-Step ^18F-Labeling and Preclinical Evaluation of Prostate-Specific Membrane Antigen Trifluoroborate Probes for Cancer Imaging” (Journal of Nuclear Medicine, 2019).

How the values were obtained:
PSMA = molecular target: T1, PSMA (Homo sapiens, UniProt Q04609); experiment: In vitro competition binding assay on LNCaP cells with ^18F-DCFPyL as radioligand
T1 construct: because it expresses PSMA endogenously and is commonly used to evaluate PSMA-targeting radiotracers; endogenous in cells; host or cells: LNCaP cells
Method: LNCaP cells were plated onto a 24-well poly-D-lysine coated plate for 48 h (400,000/well). […] Nonspecific binding was determined in the presence of 10 μM unlabeled DCFPyL. The assay mixtures were incubated for 1 h at 37°C with gentle agitation followed by 2 washes with cold HEPES buffered saline. A trypsin solution (0.25%, 400 μL) was then added to each well to harvest the cells. Radioactivity was measured by γ-counting, and Ki values were calculated using the “1 site—fit Ki” built-in model in Prism 7 (GraphPad).

[1] = Distribution coefficient (LogD7.4), shake flask method; type: physicochemical; conditions: n-octanol / phosphate buffer 0.1 M pH 7.4; n = 3
Method: LogD7.4 values were measured using the shake flask method. Briefly, an aliquot of ^18F-labeled tracer was added to a vial containing 2.5 mL of n-octanol and 2.5 mL of phosphate buffer (0.1 M, pH 7.4). The mixture was vortexed for 2 min and then centrifuged at 3,000g for 10 min. A sample of the n-octanol (0.1 mL) and buffer (0.1 mL) layers was counted using a γ-counter. Values of LogD7.4 were calculated using the following equation: LogD7.4 = log10 [(counts in n-octanol phase)/(counts in buffer phase)].

LNCaP xenografts = experiment: Ex vivo biodistribution and blocking studies in mice bearing LNCaP xenografts; conditions: for tumor uptake: LNCaP tumor
Method: Imaging and biodistribution experiments were performed using NODSCID IL2RγKO male mice. All experiments were conducted according to the guidelines established by the Canadian Council on Animal Care and approved by the Animal Ethics Committee of the University of British Columbia. Mice were anesthetized by inhalation with 2% isoflurane in oxygen and implanted subcutaneously with 1 × 10^7 LNCaP cells behind the left shoulder. The mice were imaged or used in biodistribution studies once the tumor reached 5–8 mm in diameter (5–6 wk).
For biodistribution and blocking studies, the mice were injected with 1–3 MBq of radiotracer. At 60 min, the mice were anesthetized with 2% isoflurane inhalation and euthanized by CO2 inhalation. Blood was withdrawn by cardiac puncture, and the organs and tissues of interest were collected, weighed, and counted using an automatic γ-counter (PerkinElmer). Uptake values were expressed as the percentage of the injected dose per gram of tissue (%ID/g).
A standard 1-way ANOVA was performed to determine whether statistically significant differences in tumor uptake occurred between radiotracers. Each radiotracer was compared with ^18F-DCFPyL using the Dunnett test (a many-to-one t test comparison). This analysis was also performed for kidney and blood activity and for tumor-to-blood and tumor-to-muscle ratios. Reported P values were adjusted for multiple comparisons. The analysis was performed using Prism 8 (GraphPad). […]
Statistical analyses were performed using GradPad prism 7. Multiple t tests were performed to compare biodistribution in unblocked and blocked mice, multiple comparisons were corrected using the Holm-Sidak method. The difference was considered statistically significant when p value was < 0.05.
Supplemental Table 1 – Complete biodistribution study for compounds [18F]1–3 […]
Tissue 1h 1h blocked 1h 1h blocked 1h 1h blocked
(%ID/g) n = 8 n = 4 n = 6 n = 4 n = 8 n = 5 […]
(1 picture or pasted object on this page, not shown here)

[2] = 1 h blocked (coinjection of DCFPyL 0.5 mg)

T1 sequence (Q04609 whole entry): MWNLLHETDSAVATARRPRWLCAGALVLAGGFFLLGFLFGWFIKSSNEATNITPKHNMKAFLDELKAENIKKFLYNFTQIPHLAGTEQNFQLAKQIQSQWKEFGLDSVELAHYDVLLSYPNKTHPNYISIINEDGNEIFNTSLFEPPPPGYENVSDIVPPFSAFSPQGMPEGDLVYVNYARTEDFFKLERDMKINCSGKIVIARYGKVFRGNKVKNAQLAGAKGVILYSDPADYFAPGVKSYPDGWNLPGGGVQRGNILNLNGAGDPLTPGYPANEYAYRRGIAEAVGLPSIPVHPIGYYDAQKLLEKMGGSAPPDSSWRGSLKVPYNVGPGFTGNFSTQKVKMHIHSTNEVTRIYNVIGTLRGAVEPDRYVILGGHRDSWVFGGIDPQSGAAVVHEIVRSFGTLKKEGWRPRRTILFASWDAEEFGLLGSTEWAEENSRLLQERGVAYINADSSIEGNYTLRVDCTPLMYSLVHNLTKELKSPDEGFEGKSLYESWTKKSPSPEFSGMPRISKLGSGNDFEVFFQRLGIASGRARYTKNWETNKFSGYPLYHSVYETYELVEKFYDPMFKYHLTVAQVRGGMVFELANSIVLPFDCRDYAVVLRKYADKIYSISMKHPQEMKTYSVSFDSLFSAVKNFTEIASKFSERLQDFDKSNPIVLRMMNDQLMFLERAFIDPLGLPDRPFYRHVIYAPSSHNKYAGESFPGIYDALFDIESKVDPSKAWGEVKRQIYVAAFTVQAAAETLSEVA

Ki (PSMA): 27.6 ± 3.8 nM
logD at 2 min [1]: -3.34 ± 0.02
T/B (tumor-to-blood ratio) (LNCaP xenografts; 1 h after injection, unblocked): 8.70 ± 1.74
T/K (tumor-to-kidney ratio) (LNCaP xenografts; 1 h after injection, unblocked): 0.04 ± 0.02
T/M (tumor-to-muscle ratio) (LNCaP xenografts; 1 h after injection, unblocked): 23.40 ± 5.00
adrenal uptake (LNCaP xenografts; 1 h after injection, unblocked): 6.66 ± 2.33 %ID/g
blood uptake (LNCaP xenografts; 1 h after injection, unblocked): 0.74 ± 0.15 %ID/g
bone uptake (LNCaP xenografts; 1 h after injection, unblocked): 0.76 ± 0.57 %ID/g
brain uptake (LNCaP xenografts; 1 h after injection, unblocked): 0.05 ± 0.01 %ID/g
fat uptake (LNCaP xenografts; 1 h after injection, unblocked): 1.05 ± 0.49 %ID/g
heart uptake (LNCaP xenografts; 1 h after injection, unblocked): 0.34 ± 0.08 %ID/g
intestine uptake (LNCaP xenografts; 1 h after injection, unblocked): 0.48 ± 0.22 %ID/g
kidney uptake (LNCaP xenografts; 1 h after injection, unblocked): 164.33 ± 50.20 %ID/g
liver uptake (LNCaP xenografts; 1 h after injection, unblocked): 1.28 ± 0.18 %ID/g
lung uptake (LNCaP xenografts; 1 h after injection, unblocked): 1.67 ± 0.47 %ID/g
muscle uptake (LNCaP xenografts; 1 h after injection, unblocked): 0.28 ± 0.07 %ID/g
pancreas uptake (LNCaP xenografts; 1 h after injection, unblocked): 0.68 ± 0.50 %ID/g
spleen uptake (LNCaP xenografts; 1 h after injection, unblocked): 3.36 ± 1.08 %ID/g
stomach uptake (LNCaP xenografts; 1 h after injection, unblocked): 0.15 ± 0.03 %ID/g
testes uptake (LNCaP xenografts; 1 h after injection, unblocked): 0.67 ± 0.27 %ID/g
tumor uptake compared with ^18F-DCFPyL (LNCaP xenografts; 1 h after injection, 1-way ANOVA, Dunnett test): lower tumor uptake than ^18F-DCFPyL
T/B (tumor-to-blood ratio) (LNCaP xenografts; [2]): 0.75 ± 0.18
T/K (tumor-to-kidney ratio) (LNCaP xenografts; [2]): 0.11 ± 0.03
T/M (tumor-to-muscle ratio) (LNCaP xenografts; [2]): 1.91 ± 0.46
adrenal uptake (LNCaP xenografts; [2]): 0.26 ± 0.15 %ID/g
blood uptake (LNCaP xenografts; [2]): 0.24 ± 0.11 %ID/g
bone uptake (LNCaP xenografts; [2]): 0.56 ± 0.20 %ID/g
brain uptake (LNCaP xenografts; [2]): 0.02 ± 0.01 %ID/g
fat uptake (LNCaP xenografts; [2]): 0.04 ± 0.03 %ID/g
heart uptake (LNCaP xenografts; [2]): 0.09 ± 0.04 %ID/g
intestine uptake (LNCaP xenografts; [2]): 0.18 ± 0.04 %ID/g
kidney uptake (LNCaP xenografts; [2]): 1.62 ± 0.73 %ID/g
liver uptake (LNCaP xenografts; [2]): 0.90 ± 0.25 %ID/g
lung uptake (LNCaP xenografts; [2]): 0.19 ± 0.09 %ID/g
muscle uptake (LNCaP xenografts; [2]): 0.11 ± 0.08 %ID/g
pancreas uptake (LNCaP xenografts; [2]): 0.08 ± 0.03 %ID/g
spleen uptake (LNCaP xenografts; [2]): 0.13 ± 0.06 %ID/g
stomach uptake (LNCaP xenografts; [2]): 0.06 ± 0.02 %ID/g
testes uptake (LNCaP xenografts; [2]): 0.08 ± 0.03 %ID/g
tumor uptake (LNCaP xenografts; 1 h after injection, unblocked, listed as 4): 6.3 ± 0.8 %ID/g
tumor uptake (LNCaP xenografts; 1 h after injection, unblocked, listed as [18F]4): 6.26 ± 0.82 %ID/g
tumor uptake (LNCaP xenografts; [2]): 0.18 ± 0.11 %ID/g
Structure (SMILES): O=C(O)CC[C@H](NC(=O)N[C@@H](CCCCNC(=O)c1ccc(Cn2cc(C[n+]3ccc([B-](F)(F)F)cc3)nn2)nc1)C(=O)O)C(=O)O [^18F-4]
